In the supplement of paper PMC11451515:

What was measured:
Assay in all cases: AUC of viability dose-response curve (% viability x log10 dose units); higher = less sensitive
Conditions in all cases: 48 h
NOMO1 = test system: NOMO1
Procedure, shortened: (§1)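 Viability of medium-adapted leukemia cells was measured by CellTiter-Glo One luminescence after 48 h at 37°C with library compounds in DMSO. Doses were 11 threefold steps from 47 μM to 0.79 nM, in 1536-well plates at 500 or 1000 cells/well. Signals were normalised per plate to DMSO and cell-free wells and fitted with a four-parameter log-logistic model on log10 dose. Area under the curve was integrated by trapezoidal rule, with curves exceeding full viability scaled and failed quality-control curves removed.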

P12-Ichikawa = test system: P12-Ichikawa
Procedure, shortened: as §1

SEM cells = test system: SEM cells
Procedure, shortened: as §1

[1] = RPMI 5 mM glucose + 10% dialyzed FBS

Structure (SMILES) | AUC of viability dose-response curve (NOMO1; HPLM + 10% dialyzed FBS) | AUC of viability dose-response curve (NOMO1; RPMI 5 mM glucose + 10% FBS) | AUC of viability dose-response curve (NOMO1; [1]) | AUC of viability dose-response curve (P12-Ichikawa; HPLM + 10% dialyzed FBS) | AUC of viability dose-response curve (P12-Ichikawa; RPMI 5 mM glucose + 10% FBS) | AUC of viability dose-response curve (P12-Ichikawa; [1]) | AUC of viability dose-response curve (SEM cells; HPLM + 10% dialyzed FBS) | AUC of viability dose-response curve (SEM cells; RPMI 5 mM glucose + 10% FBS) | AUC of viability dose-response curve (SEM cells; [1])
CCC(=O)N1CCN(CC1)C2=C(C=C(C=C2)N3C(=O)\C=C/C4=C3C5=CC(=CC=C5N=C4)C6=CN=C7C=CC=CC7=C6)C(F)(F)F | 376 | 388 | 352 | 406 | 328 | 347 | 286 | 297 | 300
Clc1ccc(C(c2ccc(Cl)cc2)[n+]2ccn(CC(OCc3ccc(Cl)cc3Cl)c3ccc(Cl)cc3Cl)c2)cc1 (stereo unspecified) | 441 | 441 | 440 | 438 | 432 | 444 | 432 | 415 | 440
CCC(=O)O[C@@]1(CC[C@H]2[C@@H]3CCC/4=C/C(=O)CC[C@]4(C)[C@H]3CC[C@]12C)C(=O)CO | 457 | 467 | 458 | 454 | 452 | 455 | – | – | –
C/C=C(\C)C(=O)N[C@@H](c1ccccc1)[C@@H](O)C(=O)O[C@H]1C[C@@]2(O)[C@@H](OC(=O)c3ccccc3)[C@@H]3[C@]4(OC(C)=O)CO[C@@H]4C[C@H](O)[C@@]3(C)C(=O)[C@H](OC(C)=O)C(=C1C)C2(C)C | – | – | – | 102 | 85.3 | 130 | 104 | 85.3 | 87.7
CC(C)[C@]12O[C@H]1[C@@H]3O[C@@]34[C@@]5(C)CC\C6=C(COC6=O)/[C@@H]5C[C@@H]7O[C@]47[C@@H]2O | 49.2 | 49 | 45.7 | 59 | 56.8 | 62.8 | – | – | –
Clc1ccc(C(c2ccccc2Cl)C(Cl)Cl)cc1 (stereo unspecified) | 427 | 456 | 448 | 452 | 436 | 432 | – | – | –
COc1cc(N2CCC(N3CCN(C)CC3)CC2)ccc1Nc1ncc(Cl)c(Nc2ccccc2[S+](=O)([O-])C(C)C)n1 | – | – | – | – | – | – | 284 | 273 | 300
CC1(C)CCC(C)(C)c2cc(NC(=O)c3ccc(C(=O)O)cc3)ccc21 | 455 | 445 | 435 | 463 | 470 | 469 | 464 | 465 | 451
CC(C)C[C@H](CC(=O)O)C(=O)N[C@@H](Cc1c[nH]c2ccccc12)C(=O)N[C@@H](C)c1ccccc1 | 428 | 446 | 465 | 413 | 419 | 421 | – | – | –
COc1c(N2C[C@@H]3CCCN[C@@H]3C2)c(F)cc2c(=O)c(C(=O)O)cn(C3CC3)c12.Cl.O | 390 | 456 | 437 | 434 | 394 | 399 | – | – | –
Nc1nccc(-c2ccc3noc(-c4ccc(Cl)cc4)c3c2)n1 | 449 | 464 | 469 | 468 | 466 | 470 | 425 | 457 | 462
C[S+](=O)([O-])N1CCN(Cc2cc3nc(-c4cccc5[nH]ncc45)nc(N4CCOCC4)c3s2)CC1 | 381 | 421 | 384 | 428 | 420 | 414 | 356 | 348 | 348
CN(C)CCc1c[nH]c2ccc(Cn3cncn3)cc12 | 318 | 277 | 311 | 329 | 312 | 286 | 267 | 226 | 257
COCC(=O)NC/C=C/c1ccc2ncnc(Nc3ccc(Oc4ccc(C)nc4)c(C)c3)c2c1 | 329 | 372 | 384 | 464 | 437 | 436 | 430 | 460 | 412
COCCCC/C(=N\OCCN)c1ccc(C(F)(F)F)cc1 | 358 | 369 | 369 | 400 | 371 | 373 | 389 | 398 | 462
CCN(CC)CCCC(C)Nc1ccnc2cc(Cl)ccc12 (stereo unspecified) | 382 | 416 | 416 | 416 | 416 | 418 | 477 | 468 | 468
CCn1c(C(=O)N(C2CC2)C2CC2)cc2c3c(ncn3C)c(Nc3cc(C)n(C)n3)nc21 | 472 | 473 | 464 | 466 | 473 | 467 | 454 | 446 | 435
CC[C@H](CO)Nc1nc(NCc2ccccc2)c2ncn(C(C)C)c2n1 | 432 | 405 | 427 | 432 | 428 | 428 | 438 | 467 | 440
NC(=O)c1nnn(Cc2cc(Cl)c(C(=O)c3ccc(Cl)cc3)c(Cl)c2)c1N | 465 | 455 | 470 | 463 | 465 | 464 | 471 | 462 | 464
COc1cccc(OC)c1-c1cc(C(=O)NC2(C(=O)O)C3CC4CC(C3)CC2C4)nn1-c1ccnc2cc(Cl)ccc12 (stereo unspecified) | 447 | 473 | 455 | 456 | 472 | 454 | 467 | 467 | 461
c1cc2c(cc1[C@H]1OC[C@H]3[C@@H]1CO[C@@H]3c1ccc3c(c1)OCO3)OCO2 | 467 | 462 | 456 | 470 | 452 | 473 | 468 | 454 | 455
Cc1cnc(Nc2cccc(CN3CCOCC3)c2)nc1Nc1cccc([S+](=O)([O-])NC(C)(C)C)c1 | – | – | – | – | – | – | 329 | 345 | 308
O=C(Nc1ccccc1)Nc1ccc(-c2ccc(C(=O)[C@@H]3CCC[C@H]3C(=O)O)cc2)cc1 | 406 | 441 | 409 | 444 | 444 | 443 | 476 | 467 | 468

Structure (SMILES) | AUC of viability dose-response curve (NOMO1; HPLM + 10% dialyzed FBS) | AUC of viability dose-response curve (NOMO1; RPMI 5 mM glucose + 10% FBS) | AUC of viability dose-response curve (NOMO1; [1]) | AUC of viability dose-response curve (P12-Ichikawa; HPLM + 10% dialyzed FBS) | AUC of viability dose-response curve (P12-Ichikawa; RPMI 5 mM glucose + 10% FBS) | AUC of viability dose-response curve (P12-Ichikawa; [1]) | AUC of viability dose-response curve (SEM cells; HPLM + 10% dialyzed FBS) | AUC of viability dose-response curve (SEM cells; RPMI 5 mM glucose + 10% FBS) | AUC of viability dose-response curve (SEM cells; [1])
NC(=O)N1CCC(CC(=O)N2CCC([C@H]3c4ncc(Br)cc4CCc4cc(Cl)cc(Br)c43)CC2)CC1 | 442 | 439 | 432 | 413 | 395 | 410 | 363 | 355 | 395
Cc1cc(/C=c2/sc3nc4ccccc4n3c2=O)c(C)n1-c1ccccc1 | 472 | 455 | 472 | 471 | 476 | 467 | 473 | 466 | 473
CN1CCC(CNc2ccc3ncc(-c4cccc(OC(F)(F)F)c4)n3n2)CC1 | 429 | 399 | 425 | 449 | 435 | 420 | 329 | 334 | 340
Cc1noc(N[S+](=O)([O-])c2ccc(N)cc2)c1C | 464 | 457 | 426 | 460 | 468 | 463 | 448 | 457 | 456
CCCCCN(C)CCC(O)(P(=O)([O-])O)P(=O)(O)O | 421 | 439 | 423 | 447 | 426 | 409 | 357 | 384 | 367
O=C(NOCC1CC1)c1ccc(F)c(F)c1Nc1ccc(I)cc1Cl | 362 | 389 | 382 | 447 | 429 | 450 | 455 | 440 | 434
COC(=O)[C@H](Cc1ccccc1)NC(=O)[C@@H](N)CC(=O)O | 453 | 461 | 437 | 454 | 459 | 458 | 476 | 472 | 467
Cc1nnc(C(=O)NC(C)(C)c2nc(C(=O)NCc3ccc(F)cc3)c(O)c(=O)n2C)o1 | 428 | 449 | 470 | 448 | 454 | 465 | 473 | 449 | 465
Cc1ccc(C(=O)Nc2ccc([S+](=O)([O-])O)c3cc([S+](=O)([O-])O)cc([S+](=O)([O-])O)c23)cc1NC(=O)c1cccc(NC(=O)Nc2cccc(C(=O)Nc3cc(C(=O)Nc4ccc([S+](=O)([O-])O)c5cc([S+](=O)([O-])O)cc([S+](=O)([O-])O)c45)ccc3C)c2)c1 | 350 | 406 | 396 | 390 | 392 | 381 | 414 | 393 | 373
NC[C@H](O)c1ccc(O)c(O)c1 | 411 | 452 | 427 | 460 | 457 | 439 | 443 | 453 | 456
CC1(C)[C@@H](O)CC[C@@]2(C)[C@H]1CC[C@]3(C)[C@@H]2C(=O)\C=C/4[C@@H]5C[C@](C)(CC[C@]5(C)CC[C@@]34C)C(O)=O | 465 | 448 | 460 | 464 | 468 | 461 | 468 | 470 | 477
Cc1nc(-c2ccc(-c3ccc(C(=O)N4CCc5cc6c(cc54)C4(CCN(C)CC4)CO6)cc3)c(C)c2)no1 | 454 | 477 | 449 | 464 | 460 | 447 | 420 | 467 | 439
CCC[C@H](Nc1nc(-c2ccc(NC(=O)NCC)c(OC)c2)ncc1C)c1cccnc1 | 287 | 251 | 251 | 195 | 194 | 205 | – | – | –
OC1CCC(CC1)N2\C=N/C3=C(C2=N)C(=C([N]3CC4=CC=CC=C4)C5=CC=CC=C5)C6=CC=CC=C6 (stereo unspecified) | 399 | 402 | 403 | 437 | 395 | 408 | 329 | 323 | 353
C=C1CCC2[C@](C)(CO)C(O)CC[C@]2(C)C1C/C=C1/C(=O)OCC1O (stereo partly specified) | 395 | 459 | 453 | 454 | 457 | 448 | 439 | 383 | 420
CNC(=O)c1nn(C)c2c1C(C)(C)Cc1cnc(Nc3ccc(N4CCN(C)CC4)cc3)nc1-2 | 371 | 400 | 386 | 404 | 384 | 376 | 269 | 265 | 275
C/C1=C/C(=C(/CNC(=O)C2=CC(=CC3=C2C=N[N]3C4CCCC4)C5=CC=C(CN6CCOCC6)C=C5)C(=O)N1)C | 448 | 456 | 451 | 456 | 462 | 452 | – | – | –
COc1cc2c(cc1O)CCC1C2CC[C@@]2(C)C1CC[C@@H]2O (stereo partly specified) | 390 | 412 | 404 | 359 | 368 | 382 | – | – | –
OC(=O)CNC(=O)\C1=C(/O)C2=CC=CC=C2N(CC3=CC=CC=C3)C1=O | 466 | 430 | 450 | 462 | 456 | 433 | – | – | –
O=C(CCCN1CCC(O)(c2ccc(Cl)cc2)CC1)c1ccc(F)cc1 | 467 | 471 | 470 | 459 | 466 | 470 | – | – | –
CCC(=O)NC[C@H](Cc1ccc(OCCc2nc(-c3ccccc3)oc2C)cc1)N/C(C)=C\C(=O)c1ccc(C(F)(F)F)cc1 | 433 | 438 | 462 | 410 | 406 | 398 | – | – | –
NCCOc1cc(C(=O)Nc2cc(OCCN)c3ccccc3n2)nc(C(=O)Nc2cc(OCCN)c3ccccc3n2)c1 | – | – | – | – | – | – | 148 | 122 | 170
